Source: patent publication US4939175A, “Use of N,N-dimethyl-1-[1-(4-chlorophenyl)cyclobutyl]-3-methylbutylamine” (priority 1988, dated 1990)
Like-named read-outs stand apart in the source and are kept apart here.

Assays:
[1] = Acute toxicity, oral, mice; parameters: species or system SlC:ddy male mice; settings: mouse, in vivo, read-out: Number of dead mice per 10 mice
Method: SlC:ddy male mice (10 heads/group) were used.
After the oral administration of the test smaple, desipramine was used as the test drug, to the mice, the number of the dead mice was counted at 0.5, 1, 2, 4, 18 and 24 hours respectively after the oral administration.

[2] = test system: memory defect artificially induced by electroconvulsive shock in mice; assay: Memory defect artificially induced by electroconvulsive shock in mice (step-through test); assay type: in vivo, C 57 BL/6 male mice; settings: ECS +; for Number of mice showing latency longer than 300 seconds: 1 hour before testing trial, 10 mice; for Amnestic syndrome rate: control ECS + 80, ECS - 40
Method: […]. The test was carried out by using a box divided into two rooms (light and dark). The dark room (23.5 cm in height, 12 cm in width and 24 cm in length) was surrounded by black inner walls and provided with a stainless steel bar on the floor to give the mouse an electric shock. The light room (triangular in shape with 15 cm in height, 13 cm in bottom side length and 12 cm in oblique-side length) was surrounded by transparent walls except for the partition wall, provided with a guillotine door (5 cm in height and 3 cm in width) at the center of the partition wall, and illuminated with a 100 Watt electric bulb at a position of 50 cm above the floor.
The test was carried out according to the procedures as follows:
After the mouse was put in the light room, the guillotine door was opened. When the limbs of the mouse entered into the dark room, the door was closed. After keeping the mouse for 10 seconds in the dark room, it was brought back to the home cage.
The mouse was put in the light room at the time of 30 minutes after the taming trial, and then the guillotine door was opened. When the limbs of the mouse entered into the dark room, the door was closed and 0.4 mA of electric shock was applied to the limbs of the mouse for 3 seconds. Then, the mouse was brought back to the home cage.
The mouse was put in the light room at the time of 24 hours after the acquisition trial, and then the guillotine door was opened.
Electroconvulsive shock (30 mA, 0.5 second) was applied to the mouse at its ears immediately after the acquisition trial, which caused tetany on the mouse. The mice, which survived after the righting reflex had disappeared,were subjected to the testing trial 24 hours later.
The test compound was dissolved in distilled water, and the solution was orally administered, in a dose shown in Table 1 to each group consisting of 10 heads at the time of one hour before the testing trial.
The testing trial (3) was conducted at one hour after the test compound administration, and the reaction latency was examined for each test mouse. The obtained results are shown in Table 1, and Amnestic syndrome rate (%) is expressed as follows: [formula]

[3] = test system: inhibition of conditioned avoidance response induced by reserpine in rats; assay: Inhibition of conditioned avoidance response induced by reserpine in rats; assay type: in vivo, Std-Wistar male rats
Method: Effect of the test samples on the inhibition of conditioned avoidance response induced by reserpine in rats
Std-Wistar male rats (8 to 9 week age) weighing of 270 to 300 g were fed under the conditions of 23±2° C., 60±10% R.H. and artificial lighting from 7 AM to 7 PM for a week, and then subjected to the test.
The test was carried out by using a shuttle box. The shuttle box used herein was a rectangular box, which was equipped with a buzzer for conditioned stimulus at the upper part and grids of 2 mm in diameter, for non-conditioned stimulus, at intervals of 1 cm on the floor, and divided into two equal sized compartments by a hurdle of 5 cm in height.
The schedule for inducing the conditioned avoidance response was controlled by a computer, and all the observed results of avoidance or escape response were recorded automatically.
The avoidance condition was carried out as follows:
After the conditioned stimulus of the buzzer with sound signal for 5 seconds, the non-conditioned stimulus of the foot shock was given for 5 seconds to rats. Each stimulus was stopped immediately, if the rat jumped over the hurdle to the other compartment during the conditioned or non-conditioned stimulus.
The above-mentioned rats were put on the trials for 25 times. Then the rats were given reserpine (1 mg/kg, intraperitoneally). The rats were tested for 15 times at the time of 18 to 20 hours after the reserpine administration, and then they were divided into several groups ([…]).
The test sample was dissolved in distilled water and administered orally to each group at 24 to 26 hours after the reserpine administration. For reference, distilled water as control sample, and amitriptyline and amantadine as test drugs were used.
At one hour after the test sample administration, the rats were put on the trials for 25 times and the conditioned avoidance responce was compared between the control group (distilled water administration), the test compound-administered group and the test drug-administered groups.

[4] = test system: depletion of dopamine induced by MPTP in mice whole brain; assay: animal or person; assay type: in vivo, SlC: ddy strain male mice; settings: Mus musculus, po, 168 h, MPTP 50 mg/kg s.c., read-out: Percentage of the amount of dopamine in the treated group against the amount of dopamine in the non-treated group; for response vs control in vivo at 10 mg/kg: 10 mg/kg oral
[5] = test system: circling behavior in rats with unilateral substantia nigra lesions; assay: Circling behavior in rats with unilateral substantia nigra lesions; assay type: in vivo, Std: Wistar male rats; settings: 2 hours after, control 0.1 ± 0.4, **p < 0.01
Method: Effect of the test samples on circling behavior in rats with unilateral substantia nigra lesions
Std: Wistar male rats (8 heads/group) were used. The rat with unilateral substantia nigra lesions was made by injecting 8 μg/4 μl of 6-hydroxydopamine to the right side of substantia nigra.
The test sample was administered orally to the rat. At 2 hours later, the number of circling behavior per 10 minutes was counted.
Amantadine was used as the reference drug and distilled water was used as control sample.

[6] = test system: depletion of serotonin induced by p-chloroamphetamine; assay: Depletion of serotonin (5-HT) induced by p-chloroamphetamine (whole brain); assay type: in vivo, SlC:ddy mice; settings: p-chloroamphetamine 10 mg/kg i.p., control 48 ± 6, **p < 0.01
Method: Effect of the test samples on the depletion of serotonin (hereinafter referred to as "5-HT") induced by p-chloroamphetamine
The test sample was administered orally to SlC:ddy made mice and after 60 minutes, p-chloroamphetamine (10 mg/kg) was injected intraperitoneally.
At 6 hours later, the mice were decapitated. The whole brain was rapidly removed and homogenized in 0.06M perchloric acid with N-methylserotonin (10 μg/ml) as an internal standard. The homogenate was centrifuged and then the amount of 5-HT in the supernatant was determined by high performance liquid chromatography with electrochemical detection.
Amitriptyline was used as the reference drug and distilled water was used as control sample.

CC(C)CC(N(C)C)C1(c2ccc(Cl)cc2)CCC1.Cl (stereo not drawn) [Test compound, N,N-dimethyl-1-[1-(4-chlorophenyl)cyclobutyl]3-methylbutylamine hydrochloride]
mortality at 0.5 h ([1]; 200 mg/kg oral): 0% | mortality at 1 h ([1]; 200 mg/kg oral): 10% | mortality at 2 h ([1]; 200 mg/kg oral): 10% | mortality at 4 h ([1]; 200 mg/kg oral): 10% | mortality at 18 h ([1]; 200 mg/kg oral): 20% | mortality at 24 h ([1]; 200 mg/kg oral): 20% | mortality at 0.5 h ([1]; 800 mg/kg oral): 40% | mortality at 1 h ([1]; 800 mg/kg oral): 50% | mortality at 2 h ([1]; 800 mg/kg oral): 50% | mortality at 4 h ([1]; 800 mg/kg oral): 60% | mortality at 18 h ([1]; 800 mg/kg oral): 90% | mortality at 24 h ([1]; 800 mg/kg oral): 90% | Number of mice showing latency longer than 300 seconds ([2]; 0.3 mg/kg oral): 4 | Amnestic syndrome rate ([2]; 0.3 mg/kg oral): 60% | Number of mice showing latency longer than 300 seconds ([2]; 1.0 mg/kg oral): 3 | Amnestic syndrome rate ([2]; 1.0 mg/kg oral): 70% | Number of mice showing latency longer than 300 seconds ([2]; 3.0 mg/kg oral): 7 | Amnestic syndrome rate ([2]; 3.0 mg/kg oral): 30% | Number of mice showing latency longer than 300 seconds ([2]; 10.0 mg/kg oral): 9 | Amnestic syndrome rate ([2]; 10.0 mg/kg oral): 10% | Conditioned avoidance response 1 hour after administration of the test sample ([3]; 10 mg/kg oral, reserpine 1 mg/kg, control 2): 82% | Conditioned avoidance response before administration of reserpine ([3]; baseline before test sample, 10 mg/kg group): 90% | Conditioned avoidance response 18 to 20 hours after administration of reserpine ([3]; reserpine 1 mg/kg i.p., before test sample, 10 mg/kg group): 2% | response vs control in vivo at 10 mg/kg ([4]; Experiment I, control 71 ± 11, *P < 0.05, **P < 0.01): 83 ± 12% | response vs control in vivo at 30 mg/kg ([4]; Experiment I, 30 mg/kg oral, control 71 ± 11, *P < 0.05, **P < 0.01): 85 ± 6% | response vs control in vivo at 10 mg/kg ([4]; Experiment II, control 88 ± 20, *P < 0.05): 111 ± 8% | Number of circling behavior per 10 min. ([5]; 3 mg/kg oral): 3.0 ± 2.9 per 10 min. | Number of circling behavior per 10 min. ([5]; 10 mg/kg oral): 5.1 ± 4.4 per 10 min. | Percentages of the amount of 5-HT in the treated group against the amount of 5-HT in the non-treated group ([6]; 3 mg/kg oral): 64 ± 8% | Percentages of the amount of 5-HT in the treated group against the amount of 5-HT in the non-treated group ([6]; 10 mg/kg oral): 103 ± 10%
